In PubChem BioAssay AID1918998 (Molecular Pharmacology Branch, DTP, NCI, 2023):

System: 521955-158-R2-J5-PDC complex spheroid growth
Assay: Anticancer human tumor 521955-158-R2-J5-PDC patient-derived pancreatic carcinoma cell line growth inhibition [AhR]
Settings: for IC50: curve of first compound; for viability, T/C: stronger effect = lower value
From the text: Multicellular complex tumor spheroid response to aryl hydrocarbon receptor antagonists in combination with a variety of drugs and investigational agents in selected tumor cell lines
The current study was undertaken to assess response to aryl hydrocarbon receptor antagonists in combination with standard-of-care drugs and investigational agents in solid tumor complex spheroid models. Complex spheroids include a stromal component modeled by human endothelial cells (HUVEC) and fibroblasts modeled by human mesenchymal stem cells (MSCs). The concentration ranges selected for each drug and investigational agent were based upon clinically achievable concentrations if the clinical Cmax of the agent was known.
Compounds. The drugs and investigational agents: BAY 2416964 (NSC825713), GNF351 (NSC835774), CH-223191 (NSC835775), CPI-455 (NSC825282), aza-TdCyd (NSC777586), decitabine (NSC127716), belinostat (NSC758774), entinostat (NSC756642), pevonedistat (NSC761192), tazemetostat (NSC777109), talazoparib (NSC765396), olaparib (NSC753686), selinexor (NSC780203), nedisertib (M3814, NSC802822), bortezomib (NSC756655), venetoclax (NSC766270), doxorubicin (NSC123127), elimusertib (BAY189344, NSC800525), ceralasertib (AZD6738, NSC777638), TAK-243 (NSC785004), alisertib (NSC759677), etoposide (NSC141540), topotecan (NSC609699), eribulin (NSC707389), gemcitabine (NSC613327), carboplatin (NSC241240), cisplatin (NSC119875), and SN-38 (NSC673596) were obtained from the National Cancer Institute (NCI) Developmental Therapeutics Program Chemical Repository (32). The FDA-approved anticancer drug set is available from the Developmental Therapeutics Program at https://dtp.cancer.gov/organization/dscb/obtaining/available plates.htm. […] The stock solutions were prepared in dimethyl sulfoxide (DMSO, Sigma-Aldrich, St. Louis, MO, cat. D2650), except for the platinum compounds which were prepared in saline (Quality Biological, Gaithersburg, MD, cat. 114-055-101), at 800-fold the tested concentration and stored at -70 degrees C prior to their use. All drugs and investigational agents were tested over a range starting from a high concentration at or near the clinical Cmax and decreasing in half-log increments. If the clinical Cmax for an agent had not been determined, the highest concentration tested was 10 microM (Table 1).
Cell Culture. All cells were maintained in an incubator at 37 degrees C and 5% CO2 with 95% humidity. The PDC lines were cultured according to standard operating procedures established by the NCI PDMR (https://pdmr.cancer.gov). Briefly, all PDCs were thawed and cultured in Matrigel-coated flasks prepared with a working solution of 1X Ham's F-12 nutrient mix, without supplementation (Invitrogen, Waltham, MA, cat. 11765054), 100 U/mL penicillin-streptomycin (Invitrogen, cat. 15140122), and 2.5% Matrigel (Corning Inc., Corning, NY, cat. 354248) for the first three passages. All PDCs were cultured in complete DMEM/F-12 media containing advanced DMEM/F-12 (Invitrogen, cat. 12634028), 4.9% defined fetal bovine serum, heat inactivated (HyClone Laboratories Inc., Logan, UT, cat. SH30070.03HI), 389 ng/mL hydrocortisone (Sigma-Aldrich, cat. H4001), 9.7 ng/mL human EGF recombinant protein (Invitrogen, cat. PHG0313), 23.4 microg/mL adenine (Sigma-Aldrich, cat. A2786), 97.3 U/mL penicillin-streptomycin (Invitrogen, cat. 15140122), 1.9 mM L-glutamine (Invitrogen, cat. 25030081), and 9.7 microM Y-27632 dihydrochloride (Tocris Bioscience, Bristol, United Kingdom, cat. 1254). The PDCs were cultured in complete DMEM/F12 media without 10 microM Y-27632 dihydrochloride for at least two passages prior to the screen. The established cell lines NCI-H1341 and […] were cultured in DMEM/F-12, HEPES (Invitrogen, cat. 11330032), 5% defined fetal bovine serum (HyClone Laboratories Inc., cat. SH30070.03), ITS premix universal culture supplement [insulin (5 microg/mL), transferrin (5 microg/mL), and selenious acid (5 ng/mL)] […]

[1] = second compound 0.1 µM, first compound 0.0316 µM
[2] = second compound 0.1 µM, first compound 0.1 µM
[3] = second compound 0.1 µM, first compound 0.316 µM
[4] = second compound 0.1 µM, first compound 1 µM
[5] = second compound 0.1 µM, first compound 3.16 µM
[6] = second compound 0.1 µM, first compound 10 µM
[7] = second compound 0.316 µM, first compound 0.0316 µM
[8] = second compound 0.316 µM, first compound 0.1 µM
[9] = second compound 0.316 µM, first compound 0.316 µM
[10] = second compound 0.316 µM, first compound 1 µM
[11] = second compound 0.316 µM, first compound 3.16 µM
[12] = second compound 0.316 µM, first compound 10 µM
[13] = second compound 1 µM, first compound 0.0316 µM
[14] = second compound 1 µM, first compound 0.1 µM
[15] = second compound 1 µM, first compound 0.316 µM
[16] = second compound 1 µM, first compound 1 µM
[17] = second compound 1 µM, first compound 3.16 µM
[18] = second compound 1 µM, first compound 10 µM
[19] = second compound 3.16 µM, first compound 0.0316 µM
[20] = second compound 3.16 µM, first compound 0.1 µM
[21] = second compound 3.16 µM, first compound 0.316 µM
[22] = second compound 3.16 µM, first compound 1 µM
[23] = second compound 3.16 µM, first compound 3.16 µM
[24] = second compound 3.16 µM, first compound 10 µM
[25] = second compound 10 µM, first compound 0.0316 µM
[26] = second compound 10 µM, first compound 0.1 µM
[27] = second compound 10 µM, first compound 0.316 µM
[28] = second compound 10 µM, first compound 1 µM
[29] = second compound 10 µM, first compound 3.16 µM
[30] = second compound 10 µM, first compound 10 µM
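For viability, T/C in this document: spheroids mix tumor cells with HUVEC endothelium and human MSC stroma; luminescence taken as viability surrogate after a week of drug exposure.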

Row | IC50 (second compound 0.1 µM) [nM] | IC50 (second compound 0.316 µM) [nM] | IC50 (second compound 1 µM) [nM] | IC50 (second compound 3.16 µM) [nM] | IC50 (second compound 10 µM) [nM] | SMILES | viability, T/C [1] [%] | viability, T/C [2] [%] | viability, T/C [3] [%] | viability, T/C [4] [%] | viability, T/C [5] [%] | viability, T/C [6] [%] | viability, T/C [7] [%] | viability, T/C [8] [%] | viability, T/C [9] [%] | viability, T/C [13] [%] | viability, T/C [14] [%] | viability, T/C [19] [%] | viability, T/C [20] [%] | viability, T/C [25] [%] | viability, T/C [26] [%] | also measured
1 | > 10000 | > 10000 | > 10000 | > 10000 | > 10000 | CC1(C)CCC(CN2CCN(c3ccc(C(=O)NS(=O)(=O)c4ccc(NCC5CCOCC5)c([N+](=O)[O-])c4)c(Oc4cnc5[nH]ccc5c4)c3)CC2)=C(c2ccc(Cl)cc2)C1 + CC(CO)NC(=O)c1cc(-c2ccc(Cl)cc2)nn(-c2cnn(C)c2)c1=O | 103 | 125 | 92.1 | 92.7 | 98 | 67.3 | 115 | 111 | 124 | 93.1 | 105 | 123 | 99.1 | 90.2 | 120 | viability, T/C [10]: 100%; viability, T/C [11]: 111%; viability, T/C [12]: 67.7%; viability, T/C [15]: 122%; viability, T/C [16]: 138%; viability, T/C [17]: 124%; viability, T/C [18]: 56%; viability, T/C [21]: 113%; viability, T/C [22]: 113%; viability, T/C [23]: 108%; viability, T/C [24]: 61.9%; viability, T/C [27]: 109%; viability, T/C [28]: 92.8%; viability, T/C [29]: 95.1%; viability, T/C [30]: 63.7%
2 | > 10000 | > 10000 | > 10000 | 2660 | 1180 | COc1cc(Nc2ncc3c(n2)-c2ccc(Cl)cc2C(c2c(F)cccc2OC)=NC3)ccc1C(=O)O + CC(CO)NC(=O)c1cc(-c2ccc(Cl)cc2)nn(-c2cnn(C)c2)c1=O | 99.5 | 78.4 | 68.2 | 61.9 | 65.3 | 50 | 91.3 | 74.6 | 71.9 | 59.5 | 64.9 | 84.3 | 69.5 | 62.2 | 49.3 | viability, T/C [10]: 76.5%; viability, T/C [11]: 55%; viability, T/C [12]: 50.6%; viability, T/C [15]: 69.2%; viability, T/C [16]: 63.6%; viability, T/C [17]: 48.6%; viability, T/C [18]: 72.8%; viability, T/C [21]: 48%; viability, T/C [22]: 65.4%; viability, T/C [23]: 47.7%; viability, T/C [24]: 44.9%; viability, T/C [27]: 62.4%; viability, T/C [28]: 51.8%; viability, T/C [29]: 37.6%; viability, T/C [30]: 35%
3 | > 100 | > 100 | > 100 | > 100 | > 100 | Cn1ncnc1C1c2n[nH]c(=O)c3cc(F)cc(c23)NC1c1ccc(F)cc1 (stereo not given) + CC(CO)NC(=O)c1cc(-c2ccc(Cl)cc2)nn(-c2cnn(C)c2)c1=O | 105 | 83 | – | – | – | – | 74.1 | 103 | – | 106 | 100 | 86.1 | 78.5 | 60.1 | 77.8 | viability, T/C (second compound 0.1 µM, first compound 0.000316 µM): 99.2%; viability, T/C (second compound 0.1 µM, first compound 0.001 µM): 112%; viability, T/C (second compound 0.1 µM, first compound 0.00316 µM): 116%; viability, T/C (second compound 0.1 µM, first compound 0.01 µM): 108%; viability, T/C (second compound 0.316 µM, first compound 0.000316 µM): 117%; viability, T/C (second compound 0.316 µM, first compound 0.001 µM): 107%; viability, T/C (second compound 0.316 µM, first compound 0.00316 µM): 120%; viability, T/C (second compound 0.316 µM, first compound 0.01 µM): 119%; viability, T/C (second compound 1 µM, first compound 0.000316 µM): 103%; viability, T/C (second compound 1 µM, first compound 0.001 µM): 134%; viability, T/C (second compound 1 µM, first compound 0.00316 µM): 112%; viability, T/C (second compound 1 µM, first compound 0.01 µM): 114%; viability, T/C (second compound 3.16 µM, first compound 0.000316 µM): 118%; viability, T/C (second compound 3.16 µM, first compound 0.001 µM): 121%; viability, T/C (second compound 3.16 µM, first compound 0.00316 µM): 86.1%; viability, T/C (second compound 3.16 µM, first compound 0.01 µM): 89.3%; viability, T/C (second compound 10 µM, first compound 0.000316 µM): 104%; viability, T/C (second compound 10 µM, first compound 0.001 µM): 100%; viability, T/C (second compound 10 µM, first compound 0.00316 µM): 99.7%; viability, T/C (second compound 10 µM, first compound 0.01 µM): 82.6%
4 | 486 | 484 | 492 | 371 | 232 | NS(=O)(=O)OCC1CC(n2ccc3c(NC4CCc5ccccc54)ncnc32)CC1O (stereo not given) + CC(CO)NC(=O)c1cc(-c2ccc(Cl)cc2)nn(-c2cnn(C)c2)c1=O | 87.2 | 92.5 | 61.7 | 29.5 | 20.6 | 18.7 | 93.1 | 90.2 | 61.1 | 90.5 | 97.7 | 85.5 | 83.1 | 68.8 | 66 | viability, T/C [10]: 30.5%; viability, T/C [11]: 19.5%; viability, T/C [12]: 18.3%; viability, T/C [15]: 62%; viability, T/C [16]: 31%; viability, T/C [17]: 21.6%; viability, T/C [18]: 20.7%; viability, T/C [21]: 49.8%; viability, T/C [22]: 31.3%; viability, T/C [23]: 20.8%; viability, T/C [24]: 14.7%; viability, T/C [27]: 41.6%; viability, T/C [28]: 31.2%; viability, T/C [29]: 19.2%; viability, T/C [30]: 15.2%
